The values below come from patent publication US4999344A, “Phosphatidyl treatment of rapidly proliferating cells” (priority 1988, dated 1991).

The subject of data set [1] is multi-drug resistant MCF-7 ADR^R breast cancer cells. Put plainly: TCA-precipitable 2-[3H]methylthymidine incorporation. The data set is classed as cell-based. The note with it: thymidine incorporation. As for the experimental part:
MCF-7 cells were continuously exposed to increasing concentrations of adriamycin resulting in multidrug-resistance (mdr) as a stable genetic trait (Batist et al., J. Biol. Chem. (1986) 261:[…]). The mdr cells are referred to as ADR^R cells. MCF-7 WT (wild-type) and ADR^R cells were plated at 1000 cells/well (9.6 cm^2) in RPMI 1640 supplemented with 10% fetal bovine serum (day 1). Plant PI (0.5-150 μM) in the form of multilamellar vesicles (Jett and Alving, in Methods in Enzymology 141B (eds. Conn. P.M. and Means A.R.) 459-466, Academic Press, Orlando, FL 1987) or adriamycin (1-2000 nM) was added to the cultures on day 2. At day 8-10, the fluid was removed and clones were fixed, stained and counted. Colonies were scored positive if >40 cells/clone Adriamycin (10-500 nM) or plant PI (20-200 μM) was added at the time of cell plating. At day 8-10, the colony forming units of granulocytes and monocytes (CFV-GM) were counted. The results were the average of triplicate experiments.
In order to further assess cell viability between wild-type (MCF-7 wild-type cell line) (WT) and multi-drug resistant MCF-7 ADR^R (MDR^R) breast cancer cells, tests involving TCA-precipitable 2-[^3 H]methylthymidine incorporation were employed. MCF-7 WT and ADR^R cells were plated (Day 1) at 1500 cells/well in 96-well cluster plates. […] Results were expressed as the geometric mean of triplicate cultures.
A general note: Incorporation of labelled thymidine or its analogues reports DNA synthesis.

For data set [2], the system named is MCF-7 wild-type (WT) breast cancer cells. The description is as above. The data set is classed as cell-based. The note with it: thymidine incorporation. As to the method:
In order to further assess cell viability between wild-type (MCF-7 wild-type cell line) (WT) and multi-drug resistant MCF-7 ADR^R (MDR^R) breast cancer cells, tests involving TCA-precipitable 2-[^3 H]methylthymidine incorporation were employed. MCF-7 WT and ADR^R cells were plated (Day 1) at 1500 cells/well in 96-well cluster plates. On Day 2, phospholipid preparations were added to triplicate cultures. On Day 7, 2-[^3 H]methylthymidine was added and the cells harvested as described (Jett et al., Cancer Res. (1985) 45:4810-4815), using 5% TCA as the wash buffer. Results were expressed as the geometric mean of triplicate cultures.

Data set [3] concerns N4TG1 neuroblastoma cells. The data set can be described thus: Thymidine uptake (cell viability) by N4TG1 neuroblastoma cells incubated with liposomes. The data set is classed as cell-based, mouse. As to conditions: FIG. 1. As to the method: Plant PI(S) is from the Sigma Chemical Company and plant PI(A) is from Avanti Polar Lipids, Inc. and ([^14 C]linoleoyl)PI is the synthetic PI.
FIGS. 3a and 3b show the effect of increasing the molar fraction of synthetic PI or animal PI in liposomes on (a) thymidine uptake (FIG. 3a) and myo-inositol uptake (FIG. 3b) by N4TG1 neuroblastoma cells, .circle. 100 μm PI, 200 μm PI, 300 μm PI. Cells were incubated with liposomes made up of the various combinations indicated (mol %) of ([^14 C]linoleoyl)PI and animal PI.
FIGS. 9a, b, c, and d show the effect of inhibitors on PI toxicity to tumor cells.
(§1) Lipids were dried and resuspended exactly as described previously in the Biochem. Biophys. Res. Commun. article. In the use of ([^14 C]linoleoyl)PI, ([^14 C]oleoyl)PI, or ([^14 C]arachidonoyl)PI the phospholipids were used in a 2:1 molar combination with cholesterol. Cholesterol was included in the liposomes in order to minimize the net transfer of cholesterol into or out of the cells. ([^3 H]myo-Inositol)PI was used as a tracer (1%) with bovine liver PI as the bulk phospholipid carrier for forming liposomes. [^3 H]Linoleic acid was used as a tracer (4%) in liposomes containing linoleic acid:PI (yeast or animal): cholesterol, 2:1. It was shown that it is not necessary to have cholesterol present to observe the cytotoxicity.
The N4TG1 mouse neuroblastoma cell line was obtained from Dr. Peter Chiang (Walter Reed Army Institute of Research) and cultured using Dulbecco's minimal essential medium (MEM: Grand Island Biological Co.) containing 10% fetal bovine serum. Cells were routinely started from frozen cultures every 6 weeks in order to assure that the cells used were from low passage cultures.
(§2) [methyl-^3 H]Thymidine (New England Nuclear) incorporation was carried out using 96-well plates (Costar). Thymidine incorporation was used as an assay for cell viability, since in the previous studies described in the Biochem. Biophys. Res. Commun. (1983) article, other methods of assessing cell viability, including microscopic evaluation in the presence of trypan blue, gave identical results. Fifty μl of cell suspension (4×10^5 cells/ml) were added to duplicate wells. Approximately 18 hours later 25 μl of the PI-containing liposomes were added to give a final concentration of phospholipid of 200 μM (approximately, 14 nmol/2-3×10^4 cells). At various intervals after PI addition [^3 H]thymidine, 1 μCi/well was added and incubated with the cells for 3 hours. Cells were collected on glass fiber filter mats by a mechanical cell harvester (Skatron, Inc.) using a combination of scraping and fluid turbulence (saline). Filters were dried and the material was solubilized by incubation overnight with NCS tissue solubilizer and counted in the presence of Spectrafluor (Amersham).
In FIGS. 1 and 2 the curves were quite reproducible and representative experiments are shown. Because of fluctuations (<5%) in control values, the data were "normalized" by comparison with daily controls and expressed as "percentage of control in absence of PI." Typical values for uptake of [^3 H]thymidine by controls are shown in the inserts in FIGS. 1 and 2.

Data set [4] can be described thus: Sedimentation of liposomes by low speed / differential centrifugation. The data set is classed as physicochemical. As to conditions: label used as liposome marker. From the text: In both FIGS. 4a and 4b, pellets 1, 2, and 3 were obtained by differential centrifugation.
Data set [5] has as its system WI-38/SV-40. The data set can be described thus: Liposomal uptake by normal and tumor cells. The class given is cell-based, human. As for the experimental part: (§3) Thymidine uptake is a method of assessing cell viability of cultured cells, and decreased thymidine uptake occurs as a result of cytotoxicity caused by contact with toxic substances. , MRC-5 normal embryonic lung fibroblasts; , W1-38SV/40 transformed embryonic human lung fibroblasts; .quadrature..quadrature., SK-N-MC human glioblastoma cells and , N4TG1 mouse neuroblastoma cells.
(§4) Cells were treated with liposomes containing synthetic preparations of PI (left frames) or PC (right frames) containing palmitic acid in the sn-1 position and either [^14 C]linoleic acid in the sn-2 position (FIGS. 5 and 5a) or [^14 C]arachidonic acid in the sn-2 position (FIGS. 6 and 6a) or [^14 C]oleic acid in the sn-2 position (FIGS. 7 and 7a). The liposomes were comprised of the indicated phospholipids (PI or PC) and cholesterol in a molar ratio of 2:1.
(§5) The data in Table 5 was obtained concomitantly with the toxicity studies in FIGS. 5-7a.

Data set [6] relates to SK-N-MC. The data set can be described thus: Liposomal uptake by normal and tumor cells. As to conditions: tumor cells SK-N-MC. The class given is cell-based, human. As for the experimental part: as §3, §4, §5
Data set [7] deals with WI-38/SV-40. Put plainly: LD50 to tumor cells of various preparations of PI. The class given is cell-based. As to conditions: Homo sapiens.
Source text: (§6) FIGS. 5 through 7 a show comparisons of the effects of liposomes having varous phospholipids containing defined fatty acids on [^3 H-methyl]-thymidine uptake. Thymidine uptake is a method of assessing cell viability of cultured cells, and decreased thymidine uptake occurs as a result of cytotoxicity caused by contact with toxic substances. , MRC-5 normal embryonic lung fibroblasts; , W1-38SV/40 transformed embryonic human lung fibroblasts; .quadrature..quadrature., SK-N-MC human glioblastoma cells and , N4TG1 mouse neuroblastoma cells.
as §2
(§7) Res Commun. article cited above. The LD50 values for some of the cell lines reported in the Biochem. Biophys. Res. Commun. article are compared with LD50 values obtained using Avanti plant PI or synthetic ([14 C]linoleoyl)PI.

Another data set concerns N4TG1 Neuroblastoma. Put plainly: LD50 to tumor cells of various preparations of PI. The class given is cell-based. The note with it: Mus musculus.
Source text: as §6, §2, §7

Data set [8] concerns SK-N-MC. Put plainly: LD50 to tumor cells of various preparations of PI. The class given is cell-based. The note with it: Homo sapiens.
Source text: as §6, §2, §7

In a further data set the test system is MRC-5. Put plainly: Liposomal uptake by normal and tumor cells. The class given is cell-based. As to conditions: normal cells MRC-5. As for the experimental part: as §3, §4, §5
The next data set has as its system N4TG1. Put plainly: Liposomal uptake by normal and tumor cells. The class given is cell-based, mouse. The note with it: tumor cells N4TG1. As to the method:
as §3, §4, §5

Data set [9] deals with HT-144. Put plainly: Liposomal uptake by normal and tumor cells. The class given is cell-based, human. As to conditions: tumor cells HT-144. As to the method: as §4, §5
Data set [10] relates to HT-144. The data set can be described thus: LD50 to tumor cells of various preparations of PI. The class given is cell-based. The note with it: Homo sapiens. As to the method:
as §2, §7

The test system of data set [11] is N4TG1 neuroblastoma cells. The data set can be described thus: Fate of liposomal PI after incubation with N4TG1 neuroblastoma cells. The data set is classed as in vitro ADME, mouse.
Source text: as §1, with “It was shown that it is not necessary to have cholesterol present to observe the cytotoxicity.” left out
In order to extract lipids, methanol and chloroform were added to cell homogenates to obtain a single phase of CHCl3 :CH3 OH:H2 O (1:2:1 8, v/v) containing 0.1M HCl, according to Bligh and Dyer in Can. […] The lipid compositions of the cell extracts were determined by thin layer chromatography on silica gel precoated sheets (E. M. Reagents; E. Merck, FRG) using the following solvent systems: (a) chloroform:methanol: acetic acid:water, 25:15:4:2 (v/v) (used for phospholipid separation): (b) 1-propanol:4.3M ammonia containing 10 mM EDTA, 65:35 (v/v) (used for PIP and PIP2 separations); and (c) chloroform:acetone, 1:1 (v/v) (used for DG and fatty acid separations). […]

The subject of a further data set is Human marrow CFV-GM. Put plainly: Colony forming units of granulocytes and monocytes. The data set is classed as cell-based. The note with it: Monocyte, 192 h.
Data set [12] deals with tumor cells from cultured cell lines. The note with it: earlier articles; cited from earlier work.

Molecules are shown by their SMILES.

With `CCCCC/C=C\C/C=C\CCCCCCCC(=O)O[C@H](COC(=O)CCCCCCCCCCCCCCC)COP(=O)([O-])OCC[N+](C)(C)C`, the toxicity entry in [1] and in data set [2] was “not as toxic as synthetic phosphatidylinositol containing the identical fatty acids” each time.

The term IC50 denotes the midpoint of a concentration-inhibition curve. Regarding `CCCCC/C=C\C/C=C\CCCCCCC[14C](=O)O[C@H](COC(=O)CCCCCCCCCCCCCCC)COP(=O)(O)O[C@@H]1[C@H](O)[C@H](O)[C@@H](O)[C@H](O)[C@H]1O` [([^14 C]linoleoyl)PI, sn-3-phosphatidyl(1-palmitoyl-2-[1'-^14 C]linoleoyl)myo-inositol], in [3], the “effectiveness vs plant PI from Sigma” value was “slightly more effective”. The “liposomes sedimented by low speed centrifugation” value in [4] turned out to be 8%. The “liposomes which did not sediment” value in [4] is listed as 92%. Further, the Liposomal uptake in the data set with WI-38/SV-40 [5] is 0.39 nMoles of phospholipid/1 × 10^5 cells; with SK-N-MC [6], 0.45 nMoles of phospholipid/1 × 10^5 cells; in the data set with MRC-5, 0.09 nMoles of phospholipid/1 × 10^5 cells; with N4TG1 it was 0.39 nMoles of phospholipid/1 × 10^5 cells; with HT-144 [9] it was 0.39 nMoles of phospholipid/1 × 10^5 cells. Besides, the concentration for half-maximal inhibition (IC50) with WI-38/SV-40 [7] (3 hours) came out at 65 µM; in the data set with WI-38/SV-40 [7] (8 hours), 35 µM; in the data set with N4TG1 Neuroblastoma (3 hours), 25 µM; in the data set with N4TG1 Neuroblastoma (8 hours) it was 25 µM; with SK-N-MC [8] (3 hours), 39 µM; in the data set with SK-N-MC [8] (8 hours) it was 38 µM. The IC50 in the data set with HT-144 [10] (3 hours) and with HT-144 [10] (8 hours) was 25 µM throughout. The “DG (diglycerides)” value in data set [11] was 0.8.

Regarding `COc1cccc2c1C(=O)c1c(O)c3c(c(O)c1C2=O)C[C@@](O)(C(=O)CO)C[C@@H]3O[C@H]1C[C@H](N)[C@H](O)[C@H](C)O1` [adriamycin], it took 0.08 µM to reach half-maximal inhibition in the data set with Human marrow CFV-GM (IC50).

In the case of `CCCCCCCC/C=C\CCCCCCCC(=O)O[C@H]1CC[C@@]2(C)C(=CC[C@H]3[C@@H]4CC[C@H]([C@H](C)CCCC(C)C)[C@@]4(C)CC[C@@H]32)C1` [cholesteryl oleate], the “anti-tumor effect / selective killing of tumor cells” value in data set [12] is “reduced the anti-tumor effect”.

For `CCCCCCCCCCCCCCCCCC(=O)OCC(COP(=O)([O-])OCC[N+](C)(C)C)OC(=O)CCCCCCCCCCCCCCCCC` (centres unmarked) [distearoyl phosphatidyl choline, reference compound], the toxicity result in data set [1] and in data set [2] was “no toxicity” in each case.
